Measurements from patent publication US20090047246A1, “NOVEL INHIBITORS OF HEPATITIS C VIRUS REPLICATION” (InterMune, Inc., priority 2007, published 2009).
Read-outs that look alike come from different tables or passages of the source.

Biological target: T1, HCV NS3 helicase (Hepatitis C virus genotype 1b, UniProt P26663)
T1 construct: full-length NS3 (1-631), purified at Array BioPharma
Experiment: HCV Helicase Prompt FRET Assay (Example A)
Type: biochemical
Procedure, shortened: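 Initial unwinding rates, monitored as FAM fluorescence gain (ex 485, em 535) over ~30 min at room temperature, gave IC50 via 4- or 5-parameter logistic fits. Reactions: 50 nM quenched duplex, 250 nM capture strand, 300 μM ATP, 5–6 nM NS3 1-631 after 5 min compound preincubation, MOPS pH 7.0 buffer, 2% DMSO.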

[1] = HCV NS3 helicase, tables do not say whether Example A or Example B assay, read-out: IC50 Activity
[2] = Table 31, compounds made using Schemes 38-45, read-out: IC50 Activity
[3] = Table 34, compounds made using Schemes 51-52, read-out: IC50 Activity
[4] = Table 21, compounds made using Scheme 28, read-out: IC50 Activity
[5] = Table 37, compounds made using Scheme 55, read-out: IC50 Activity

T1 sequence (P26663 1027-1657): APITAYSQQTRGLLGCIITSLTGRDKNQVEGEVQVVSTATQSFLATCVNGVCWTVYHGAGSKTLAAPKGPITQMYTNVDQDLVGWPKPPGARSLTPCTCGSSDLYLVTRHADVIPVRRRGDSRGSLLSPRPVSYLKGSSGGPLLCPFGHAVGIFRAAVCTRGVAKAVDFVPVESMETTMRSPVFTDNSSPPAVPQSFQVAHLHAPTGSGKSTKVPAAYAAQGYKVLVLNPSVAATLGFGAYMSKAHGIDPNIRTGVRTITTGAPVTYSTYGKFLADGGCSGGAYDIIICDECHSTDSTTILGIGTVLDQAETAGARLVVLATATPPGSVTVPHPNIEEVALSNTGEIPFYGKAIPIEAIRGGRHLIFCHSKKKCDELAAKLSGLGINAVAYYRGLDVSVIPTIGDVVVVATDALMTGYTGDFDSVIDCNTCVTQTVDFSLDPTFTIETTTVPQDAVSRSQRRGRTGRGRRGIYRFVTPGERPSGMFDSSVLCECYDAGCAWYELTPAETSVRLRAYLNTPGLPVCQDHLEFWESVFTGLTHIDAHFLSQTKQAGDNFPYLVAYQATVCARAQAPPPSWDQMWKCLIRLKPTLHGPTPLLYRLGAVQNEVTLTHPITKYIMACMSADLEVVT

| Compound | IC50 [1] [µM] | other results |
| --- | --- | --- |
| O=C(O)Cc1cn(Cc2csc3ccc(Cl)cc23)c2cc(Oc3ccc([N+](=O)[O-])cc3)ccc12 [Example 357] | < 10 |  |
| COc1ccc(OC)c(Oc2ccc(Cn3cc(CC(=O)O)c4ccccc43)cc2)c1 [Example 510] | < 10 |  |
| CC(C)CNC(=O)Cc1cn(Cc2cccc(OCc3ccccc3)c2)c2ccc(OCc3ccccc3)cc12 [Example 187] | 10 to 50 |  |
| CS(=O)(=O)NC(=O)Cc1cn(Cc2cccc(OCc3ccccc3)c2)c2ccc(OCc3ccccc3)cc12 [Example 192] | < 10 |  |
| O=C(O)Cc1cn(Cc2ccc(Oc3ccccc3C(F)(F)F)cc2)c2ccccc12 [Example 502] | < 10 |  |
| COc1ccccc1N(C)c1cccc(Cn2cc(CC(=O)O)c3ccccc32)c1 [Example 526] | 10 to 50 |  |
| Cc1c(N)cc(N)cc1-c1ccc2c(CC(=O)O)cn(Cc3csc4ccc(Cl)cc34)c2c1 [Example 628] |  | IC50 [2]: < 10 µM |
| CCOC(=O)Cc1cn(Cc2csc3ccc(OC(F)(F)F)cc23)c2cc(-c3cc(N)cc(N)c3)ccc12 [Example 718] |  | IC50 (Table 36, compounds made using Scheme 54, read-out: IC50 Activity): 10 to 50 µM |
| Cc1cc([N+](=O)[O-])ccc1-n1cc(C(NC(=O)C2CCNCC2)C(=O)O)c2ccccc21 (stereo not shown) [Example 674] |  | IC50 [3]: > 50 µM |
| CC(C)c1ccc(Cn2c(C(=O)NCc3ccc(S(N)(=O)=O)cc3)c(CC(=O)O)c3ccccc32)cc1 [Example 442] | 10 to 50 |  |
| O=C(O)Cc1c(Cc2ccc(-c3ccc(Cl)cc3Cl)cc2)[nH]c2ccccc12 [Example 289] | < 10 |  |
| CSc1ccccc1-c1ccc(Cc2[nH]c3ccccc3c2CC(=O)O)cc1 [Example 288] | < 10 |  |
| O=C(O)Cc1c(C(=O)C(Cc2ccccc2)c2ccc(-c3ccccc3)cc2)[nH]c2ccccc12 (stereo not shown) [Example 251] | < 10 |  |
| COc1cccc(-c2ccc(-n3cc(CC(=O)O)c4ccccc43)cc2)c1 [Example 144] | < 10 |  |
| Cc1ccc2c(c1)c(CC(=O)O)cn2-c1ccc([N+](=O)[O-])cc1C [Example 380] | > 50 |  |
| O=C(O)Cc1cn(Cc2ccc(Oc3cc(Cl)cc(Cl)c3)cc2)c2ccccc12 [Example 508] | < 10 |  |
| CN(Cc1ccccc1)c1ccc(-n2c(C(=O)c3ccc(-c4ccc(Cl)c(Cl)c4)cc3)c(CC(=O)O)c3ccccc32)cc1 [Example 738] | 10 to 50 |  |
| O=C(O)Cc1cn(Cc2csc3ccc(Cl)cc23)c2c(Oc3ccc([N+](=O)[O-])cc3)cccc12 [Example 356] | < 10 |  |
| NC(=O)Cc1c(-c2ccccc2)n(Cc2csc3ccc(Cl)cc23)c2ccccc12 [Example 200] | 10 to 50 |  |
| CCN(Cc1ccccc1)c1ccc(-n2cc(CC(=O)OC)c3ccccc32)cc1 [Example 165] | 10 to 50 |  |

| Compound | IC50 [1] [µM] | other results |
| --- | --- | --- |
| CN(c1cccc(Cn2cc(CC(=O)O)c3ccccc32)c1)c1ccc(Cl)cc1Cl [Example 573] |  | IC50 [4]: < 10 µM |
| O=C(O)Cc1c(Cc2ccc(-c3ccccc3F)cc2)[nH]c2ccccc12 [Example 286] | 10 to 50 |  |
| O=C(O)Cc1c(Cc2ccc(-c3cccc(Cl)c3Cl)cc2)[nH]c2ccccc12 [Example 290] | < 10 |  |
| O=C(O)Cc1cn(Cc2cccc(OCc3ccccc3)c2)c2ccccc12 [Example 116] | 10 to 50 |  |
| CC(C)c1ccc(Cn2c(C(=O)NC3CC3)c(CC(=O)O)c3cc(Br)ccc32)cc1 [Example 434] | 10 to 50 |  |
| CN(c1ccc(Cn2cc(CC(=O)O)c3ccccc32)cc1)c1c(F)cccc1F [Example 571] |  | IC50 [4]: 10 to 50 µM |
| O=C(O)Cc1c(Cc2csc3ccc(Cl)cc23)n(CC2CC2)c2cc(OCc3ccccc3)ccc12 [Example 369] | < 10 |  |
| O=C(O)Cc1cn(Cc2csc3ccc(Cl)cc23)c2cc(-c3ccccc3F)ccc12 [Example 758] |  | IC50 [5]: > 50 µM |
| CC(C)c1ccc(Cn2cc(CC(=O)NO)c3ccccc32)cc1 [Example 677] |  | IC50 [3]: 10 to 50 µM |
| Nc1cc(-c2ccc3c(CC(=O)O)cn(Cc4csc5ccc(Cl)cc45)c3c2)nc(N)n1 [Example 629] |  | IC50 [2]: < 10 µM |
| COc1cccc(-c2ccc3c(CC(=O)O)cn(Cc4csc5ccc(Cl)cc45)c3c2)c1 [Example 746] |  | IC50 [5]: > 50 µM |
| O=C(O)Cc1cn(Cc2cccc(Oc3ccc(Cl)c(Cl)c3)c2)c2ccccc12 [Example 486] | < 10 |  |
| O=C(O)Cc1cn(Cc2cccc(Br)c2)c2ccc(OCc3ccccc3)cc12 [Example 113] | 10 to 50 |  |
| O=C(O)Cc1c(C(=O)c2cccc(-c3ccc(Cl)c(Cl)c3)c2)[nH]c2ccccc12 [Example 240] | < 10 |  |
| O=C(O)Cc1cn(Cc2ccc(Oc3cc(Cl)ccc3Cl)cc2)c2ccccc12 [Example 590] | < 10 |  |
| O=C(O)Cc1cn(Cc2csc3ccc(Cl)cc23)c2cc(-c3cccnc3)ccc12 [Example 743] | 10 to 50 |  |
| O=C(O)Cc1cn(Cc2cccc(OCc3ccccc3)c2)c2ccc(Br)cc12 [Example 101] | < 10 |  |
| Nc1nc(Cl)cc(-c2ccc3c(CC(=O)O)cn(Cc4csc5ccc(Cl)cc45)c3c2)n1 [Example 636] |  | IC50 [2]: < 10 µM |
| CN(c1cccc(Cn2cc(CC(=O)O)c3ccccc32)c1)c1c(Cl)cccc1Cl [Example 540] | < 10 |  |
| CC(C)c1ccc(Cn2c(C(=O)NCc3cccc(Cl)c3)c(CC(=O)O)c3ccccc32)cc1 [Example 451] | < 10 |  |

| Compound | IC50 [1] [µM] | other results |
| --- | --- | --- |
| O=C(O)Cc1cn(Cc2ccc(Oc3ccccc3F)cc2)c2ccccc12 [Example 493] | < 10 |  |
| Cc1cccc(CN(C)c2ccc(-n3cc(CC(=O)O)c4ccccc43)cc2)c1 [Example 176] | < 10 |  |
| CCOC(=O)Cc1cn(C(=O)c2csc3ccc(Cl)cc23)c2cc(-c3cc([N+](=O)[O-])cc([N+](=O)[O-])c3)ccc12 [Example 795] |  | IC50 (IC50 Activity, Table 38, compounds made using Scheme 56, Scheme 57 and Scheme 61): > 50 µM |
| CCOC(=O)c1c(CC(=O)O)c2cc(Br)ccc2n1Cc1ccc(C(C)C)cc1 [Example 427] | 10 to 50 |  |
| O=C(O)Cc1c(C(=O)c2ccc(-c3ccccc3C(F)(F)F)cc2)[nH]c2ccccc12 [Example 269] | 10 to 50 |  |
| Cc1cc(-c2cccc(Cn3cc(CC(=O)O)c4cc(OCc5ccccc5)ccc43)c2)on1 [Example 124] | 10 to 50 |  |
| O=C(O)Cc1cn(CC(=O)O)c2cc(-c3ccccc3)ccc12 [Example 354] | > 50 |  |
| CC(C)N(c1cccc(Cn2cc(CC(=O)O)c3ccccc32)c1)c1ccccc1C(F)(F)F [Example 555] | < 10 |  |
| O=C(O)Cc1c(Cc2ccc(-c3ccccc3C(F)(F)F)cc2)[nH]c2ccccc12 [Example 285] | < 10 |  |
| Oc1nnc(Cc2cn(Cc3csc4ccc(Cl)cc34)c3ccccc23)[nH]1 [Example 212] | 10 to 50 |  |
| CN(c1cccc(Cn2cc(CC(=O)O)c3ccccc32)c1)c1ccccc1C(F)(F)F [Example 529] | < 10 |  |
| O=C(O)Cc1c(C(=O)c2ccc(-c3ccc(Cl)c(Cl)c3)cc2)[nH]c2ccccc12 [Example 257] | < 10 |  |
| CCOC(=O)Cc1cn(Cc2csc3c(N(C=O)CC)cc(Cl)cc23)c2cc(Br)ccc12 [Example 771] |  | IC50 (Table 38, compounds made using Scheme 56, Scheme 57 and Scheme 61, read-out: IC50 Activity): > 50 µM |
| Cc1cc([N+](=O)[O-])ccc1-n1cc(C(=O)O)c2cc(Br)ccc21 [Example 382] | > 50 |  |
| O=C(O)Cc1c(C(=O)c2cccc(-c3cccc(C(F)(F)F)c3)c2)[nH]c2ccccc12 [Example 225] | 10 to 50 |  |
| Nc1cc(N)cc(-c2ccc3c(CC(=O)O)cn(Cc4csc5ccccc45)c3c2)c1 [Example 679] |  | IC50 [3]: < 10 µM |
| COc1cccc(Oc2ccc(Cn3cc(CC(=O)O)c4ccccc43)cc2)c1OC [Example 509] | < 10 |  |
| Cc1cc([N+](=O)[O-])ccc1C(C(=O)O)C1CN(c2ccc([N+](=O)[O-])cc2C)c2ccc(Br)cc21 (stereo not shown) [Example 406] | 10 to 50 |  |
